Laboratory results taken from US20080293070A1, “Markers for Memory T Cells and Uses Thereof” (priority 2005, published 2008).

B1: IL-7: cytokine purchased from R&D systems (protein, UniProt P13232 26-177, looked up)
Interleukin-7: DCDIEGKDGKQYESVLMVSIDQLLDSMKEIGSNCLNNEFNFFKRHICDANKEGMFLFRAARKLRQFLKMNSTGDFDLHLLKVSEGTTILLNCTGQVKGRKPAALGEAQPTKSLEENKSLKEQKKLNDLCFLKRLLQEIKTCWNKILMGTKEH

How the values were obtained:
Type in all cases: cell-based, human
CD4+ T cells = experiment: Apoptosis of CD4+ T cells cultured with kinase inhibitors, Annexin-V flow cytometry; details: for proportion of Annexin-V+ cells: CD4+ T cells, 24 hrs with inhibitor; for inhibitor treatment concentration: concentration used to treat sorted TCM and TEM, what the IC50 refers to is not stated
Experimental: FIG. 7. AKT and IKK mediate FOXO3a phosphorylation and survival in CD4^+ T cell. (A) Regulation of FOXO3a phosphorylation. Purified CD4^+ T Cells were pre-treated for 1 hour with kinase inhibitors (AKT-VI, AKT inhibitor: 10 μM; STO-609, CamKK inhibitor: 5 μg/ml; Wedelolactone, IKK inhibitor: 100 μM and U0126, MEK1/2 inhibitor: 50 μM). pFoxo3a (S253) was assessed. The results are representative of two independent experiments. (B) CD4^+ T cell susceptibility to apoptosis induced upon treatment with specific kinase inhibitors. CD4^+ T cells were cultured in the presence of kinase inhibitors for 24 hrs (U0126:100 μM; STO-609:10 μg/ml; Wedelolactone and AKT-IV as indicated). After 24 h, the proportion of Annexin-V^+, propidium iodide (PI)^+ cells was quantified by flow cytometry. The results are depicted as a percentage of apoptotic cells within the total population and are representative of two independent experiments. (C) Bim expression levels in response to AKT and IKK inhibitors. CD4^+ T cells were treated with AKT-IV (1.6 μM) or wedelolactone (100 μM) for 24 h. Cells were analyzed by Western Blot (WB) using Bim specific antibodies. (D and E) Regulation of AKT and IKK phosphorylation in 4^+ memory subsets. (D) pIKKαβ (S176/180) protein levels in ex-vivo sorted TCM and TEM. […] (E) PBMCs, from healthy donors, were treated with H2O2 (5 mM) or Ig-cross-linked CD28 (2 Hg/ml) for 15 min at 37° C. and labeled with CD4, CD27, CD45RA and pAKT (S473) specific antibodies. The levels of pAKT were assessed by flow cytometry in TCM- and TEM-gated subsets. The results are represented as the mean fold increase ±SD, calculated as (MFI of stimulated cells/MFI of un-stimulated cells) of five independent experiments. Values of p (determined by two-tailed T-test) are shown.
(§1) Induction and quantification of apoptosis. Apoptotic cells were detected using annexin-V labeling according to the manufacturer's protocol (Biosource). The fluorescence signals were measured by flow cytometry using a BD LSRI flow cytometer (BD-Biosciences). Approximately 50,000-gated events were collected for each sample.
To confirm the importance of the phosphorylation of FOXO3a in memory T-cell survival, purified CD4^+ T cells were treated with different kinase-inhibitors, and apoptosis was assessed by flow cytometry using Annexin-V labeling. […] Moreover, we observed a significant upregulation of the levels of the pro-apoptotic molecule Bim, known to be a FOXO3a target, in cells treated with AKT or IKK inhibitors (three and eightfold respectively) (FIG. 7C). […] None of the other kinase-inhibitors tested induced apoptosis in CD4^+ T cells (FIG. 7B) even when used at much higher concentrations (data not shown). […]

Bim = Bim expression in CD4+ T cells in response to AKT and IKK inhibitors, Western blot; details: 24 h, AKT-IV 1.6 μM, wedelolactone 100 μM
Experimental: (§2) FIG. 7. AKT and IKK mediate FOXO3a phosphorylation and survival in CD4^+ T cell. (A) Regulation of FOXO3a phosphorylation. Purified CD4^+ T Cells were pre-treated for 1 hour with kinase inhibitors (AKT-VI, AKT inhibitor: 10 μM; STO-609, CamKK inhibitor: 5 μg/ml; Wedelolactone, IKK inhibitor: 100 μM and U0126, MEK1/2 inhibitor: 50 μM). pFoxo3a (S253) was assessed. The results are representative of two independent experiments. (B) CD4^+ T cell susceptibility to apoptosis induced upon treatment with specific kinase inhibitors. CD4^+ T cells were cultured in the presence of kinase inhibitors for 24 hrs (U0126:100 μM; STO-609:10 μg/ml; Wedelolactone and AKT-IV as indicated). After 24 h, the proportion of Annexin-V^+, propidium iodide (PI)^+ cells was quantified by flow cytometry. […] Cells were analyzed by Western Blot (WB) using Bim specific antibodies. […] The levels of pAKT were assessed by flow cytometry in TCM- and TEM-gated subsets. The results are represented as the mean fold increase ±SD, calculated as (MFI of stimulated cells/MFI of un-stimulated cells) of five independent experiments. Values of p (determined by two-tailed T-test) are shown.
(§3) Western Blotting analysis. […] HRP activity was detected using an enhanced chemiluminescence detection procedure (ECL-plus detection system, Amersham Biosciences). […] Protein expression levels were expressed as a percentage of the highest signals obtained. […]

pFOXO3a (S253) = experiment: FOXO3a phosphorylation (S253) in CD4+ T cells after kinase inhibitors, Western blot; details: purified CD4+ T cells pre-treated 1 hour; AKT inhibitor 10 μM, Wedelolactone 100 μM
Experimental: as §2, §3

FasL = FasL expression in CD4+ T cells after AKT and IKK inhibitors, Western blot or flow cytometry; details: data not shown
pAKT (S473) = experiment: AKT phosphorylation (S473) in TCM- and TEM-gated PBMCs, PhosFlow; details: H2O2 5 mM, 15 min; TCM vs TEM
Experimental: as §2, with “shown. […]” for “shown.”
To assess the importance of AKT and IKK in the survival of memory T cells, we evaluated the expression of the phosphorylated forms of these proteins in TCM and TEM subsets. […]

TEM = details: sorted TEM, 24 h; AKT-IV 1.6 μM, wedelolactone 100 μM; n=2
Experimental: (§4) FIG. 8. Susceptibility of TCM and TEM to apoptosis induced by kinase inhibitors. Sorted TCM and TEM were cultured with or without AKT and IKK inhibitors as indicated. After 24 h, the percentage of apoptotic cells was quantified by Annexin-V-FITC labeling. Upper panel depict Results from a representative individual. Histogram plots show the percent of Annexin-V positive cells in TCM and TEM cells following a 24 h exposure to AKT or IKK-inhibitors. The dashed lines correspond to untreated cells while the plain lines correspond to cells treated with kinase-inhibitors. […] The fold increase of apoptosis is calculated as % of apoptotic cells in treated cells divided by the % of apoptotic cells in untreated cells.
as §1
(§5) After 24 h of treatment, the proportion of apoptotic cells was quantified using Annexin-V labeling (FIG. 8, top panel).

TCM = experiment: Apoptosis of sorted TCM induced by kinase inhibitors, Annexin-V labeling; details: 24 h, AKT-IV 1.6 μM, wedelolactone 100 μM, n=2
Experimental: as §4, §1, §5

pSTAT5a (Y694) = experiment: STAT5a phosphorylation in TCM and TEM in response to IL-2 or IL-7, flow cytometry
Experimental: (B, C and D) PBMCs from healthy donors were treated with IL-2 (100 U/ml) or IL-7 (10 ng/ml) for 15 min at 37° C. Cells were then labeled with Abs to CD4, CD27, CCR7, CD45RA and pSTAT5a. (B) Representative example of pSTAT5a expression levels. TCM-gated cells are represented in light grey and TEM-gated cells are represented in black. (C) Mean Fluorescence Intensity (MFI) of pSTAT5a level of expression measured in response to IL-2 or IL-7, in TCM and TEM (n=4). Mean pSTAT5a signal values are represented by black bars. P-values (determined by a two-tailed T-test) are shown (D) Expression level of CD127, CD25 and CD132 in ex-vivo TCM and TEM.
Flow cytometry analysis of STAT5a and AKT phosphorylation status. PBMCs were resuspended at 20 millions/ml in RPMI and incubated for 30 min in the presence of CCR7-FITC abs (20 μl/million cells) at room temperature. The cells were then washed and re-suspended at a cell concentration of 5 millions per ml in PBS and stimulated for 15 min at 37° C. in the presence of IL-2 (100 U/ml) or IL-7 (10 ng/ml). Following stimulation, the cells were fixed for 10 min at 37 degrees using cytofix buffer (BD Biosciences), pelleted and then permeabilized in PERM-III buffer (BD Biosciences) for 30 min on ice. […]
The phosphorylated form of STAT5a (Y694) (pSTAT5a) was quantified by flow cytometry.

[1] = system: pFOXO3a (S253, S315 and T32); experiment: FOXO3a phosphorylation in CD4+ T cells in response to TCR and cytokine engagement, Western blot; details: 30 min, IL-7 10 ng/ml, IL-2 100 U/ml
Experimental: (A) CD4^+ T cells were cultured in the presence of anti-CD3 (2 μg/ml), anti-CD28 (2 μg/ml), anti-CD3+CD28, IL-2 (100 U/ml), IL-7 (10 ng/ml), IFN-γ (50 μg/ml) or PMA (50 ng/ml) for 15 min and analyzed by Western Blot for pFOXO3a (S315 and S253) expression levels. The results are representative of two independent experiments. (B) CD4^+ T cells were cultured in the presence of anti-CD3/anti-CD28, IL-2 (100 U/ml), IL-7 (10 ng/ml) for 30 min and analyzed by Western Blot for pFOXO3a (T32) expression levels.
Western Blotting analysis. […] Cells were washed twice with PBS and re-suspended in lysis buffer containing 50 mM NaF and 1 mM sodium pyrophosphate. Proteins from total cell extracts (10 μg) were separated on SDS-PAGE and electrotransfered onto PVDF membranes (Roche, Indianapolis, Ind.). Membranes were incubated overnight at 4° C. with specific antibodies as described in the figure legends. Detection of the immune complexes was performed using horseradish peroxidase (HRP)-conjugated goat anti-mouse (1:2500) or goat anti-rabbit IgG antibodies (1:3000). HRP activity was detected using an enhanced chemiluminescence detection procedure (ECL-plus detection system, Amersham Biosciences). Membranes were subsequently stripped and restained with an anti-actin Abs (1:10000). […] Protein expression levels were expressed as a percentage of the highest signals obtained.

Row | Molecule | proportion of Annexin-V+ cells (CD4+ T cells) | upregulation of Bim levels (Bim) | expression levels of pFOXO3a (S253), fold lower as compared to untreated cells (pFOXO3a (S253)) | levels of FasL expression (FasL) | also measured
1 | CC[n+]1c(/C=C/N(C)c2ccccc2)n(-c2ccccc2)c2ccc(-c3nc4ccccc4s3)cc21.[I-] [AKT-IV] | increased in a dose-dependant fashion | three | eightfold | did not change | inhibitor treatment concentration (CD4+ T cells): 1.6 µM
2 | OO [H2O2] | – | – | – | – | induction of pAKT (S473) (pAKT (S473)): higher in TCM than TEM
3 | COc1cc(O)c2c(c1)oc(=O)c1c3cc(O)c(O)cc3oc21 [Wedelolactone] | increased in a dose-dependant fashion | eightfold | 4.5 fold | did not change | inhibitor treatment concentration (CD4+ T cells; Homo sapiens, CD4+ T): 100 µM; increase in Annexin-V+ cells relative to untreated cells (TEM): twofold; increase in Annexin-V+ cells relative to untreated cells (TCM): eightfold
4 | B1 | – | – | – | – | proportion of cells that up-regulated pSTAT5a, higher in TCM as compared to TEM (pSTAT5a (Y694); IL-7 10 ng/ml, 15 min, p<0.002): 30%±6.5; pSTAT5a response (pSTAT5a (Y694); both TCM and TEM, brief IL-7 treatment): upregulated pSTAT5a; levels of pFOXO3a at T32 [1]: threefold
